Reference: US20240092779A1, “USP1 INHIBITORS AND USES THEREOF” (Zentaur Therapeutics USA Inc., priority 2022, published 2024)

Key:
HCC1806 Ub-PCNA (USP1) = experiment: USP1 Western Blot Protocol (HCC1806 Ub-PCNA); type: cell-based; settings: HCC1806 cells, 4 hours
Description: USP1 Western Blot Protocol (HCC1806 Ub-PCNA)
USP1 is a deubiquitinase that catalyze the hydrolysis of iso-peptide bond between ubiquitin and the substrate proteins. Inhibition of USP1 activity results in accumulation of mono-ubiquitinated substrate such as Ub-PCNA. A cell assay was set up to determine the cellular potency of USP1 compounds by monitoring the accumulation of Ub-PCNA. The signal intensity was detected by a specific Ub-PCNA antibody through Western-blot analysis.
The assay was initiated by seeding HCC1806 cells (ATCC, CRL-2335) into 6-well plates (Corning, 3516), with a seeding density of 3×10^5 cells per well and 2 mL RPMI 1640 culture medium (Gibco, 11875119). The plates were incubated overnight at 37° C. and 5% CO2. Compounds, solubilized in DMSO (Solarbio, D8371) as 1 mM stock solution, were diluted in 4-fold steps for 5-cencentration point dose response plus a no-compound DMSO control. Diluted compounds (2 μL) were transferred into assay wells (with a final DMSO concentration of −0.1%) and the resulted assay plates incubated at 37° C. and 5% CO2 for 4 hours. After aspiration of culture medium, 100 μL of 4° C. RIPA lysis buffer (Boston BioProducts, BP-115D) supplemented with vendor recommended concentrations of protease (Roche, 4693116001) and phosphatase (Roche, 4906837001) inhibitor, was added to each well and incubated for 10 minutes on the ice. Cells were scrapped loose from the bottom of well with a scraper (Corning, 3008), transferred into a 600 μL EP tube, sonicated using Ultrasound (Qsonica, Q800R3, with 30% energy, 5-second pulse on/off cycles at 4° C., for total 2 minutes), centrifuged 13,000 rpm for 15 minutes at 4° C., and then the supernatant transferred to a new 600 μL EP tube. The total protein concentration was determined using BCA kit following vendor recommended protocol (Solarbio, PC0020-500). Loading samples were prepared by diluting the total protein concentration to 1.5 μg/μL with 5 X NuPAGE SDS loading buffer (Beyotime, P0015L) and RIPA lysis buffer, and boiling at 100° C. for 5 minutes.
15 μg protein from each sample was loaded onto NuPAGE® Novex 4-12% Bis-Tris Midi Gel, 26 W (Invitrogen, WG1403BOX) and electrophoresis was run at 80 V for 30 minutes and 120 V till the end using 1x NuPAGE® MOPS SDS Running Buffer (Novex, NP0001). The gel was then transferred to nitrocellulose membrane using the dry transfer system (iBlot 2 Transfer Stacks, nitrocellulose, D323001) with a program consisting of 20 V for 1 minute, 23 V for 4 minutes and 25 V for 2 minutes. After the membrane was blocked with 5% BSA (Solarbio, A8020) in 1X TBST (CST, 9997S) for 1 hour at room temperature, specific antibodies (Ubiquityl-PCNA antibody (CST, 13439) at 1:500 dilution, PCNA antibody (Santa Cruz, sc-56) at 1:1000 dilution, and GAPDH (CST, 5174) at 1:2000 dilution in 1 X TBST containing 1% BSA) were added and incubated at room temperature for 1.5 hours. After washing the Nitrocellulose membranes with 1 X TBST for 3 times, 10 minutes each time at room temperature, fluorescently labeled secondary antibodies (anti-rabbit IgG, Licor, 926-32211; anti-mouse IgG, LI-COR, 926-68070) at 1:5000 dilution in 1 X TBST containing 1% BSA were added and incubated for 1 hour at room temperature in the dark. The membranes were then rinsed with 1 X TBST and immersed in the RO water. Imaging of band intensity was acquired with Li—COR imaging system (Li—COR, Odyssey clx ES).
Percentage of USP1 inhibition (% Vehicle) was calculated by using following equation examining Ub-PCNA upregulation:
And IC50 was calculated using four-parameter logistic fitting program • Y=Bottom+(Top-Bottom)/(1+10 {circumflex over (()}(LogIC50−X)*Hill Slope)) • X=Log of dose or concentration
(§1) Certain compounds were tested in the assays.

MDA-MB-436 cells = experiment: CTG Protocol (MDA-MB-436 GI50), antiproliferative activity; type: cell-based, human; settings: MDA-MB-436 cells (BRCA1 mutation), 7-day incubation, CellTiter-Glo
Experimental: CTG Protocol (MDA-MB-436 GI50)
Antiproliferative activity of USP1 inhibitors was determined using breast cancer cell line MDA-MB-436 that harbors BRCA1 mutation. MDA-MB-436 cells (ATCC, HTB-130) was seeded with a seeding density of 1000 cells per well and 95 μL DMEM medium (Gibco, 10566016) into 96-well cell plates (Corning, 3610), and incubated overnight at 37° C. and 5% CO2. Compounds were solubilized in DMSO (Solarbio, D8371) as 10 mM stock solution, and then series diluted (3 folds) with DMSO for 9-point dose-response testing. The resulted series dilutions were then jump-diluted 50-fold by cell culture medium to afford the 20×stock solutions (containing 2% DMSO). Treatment was initiated by adding 5 μL of 20×stock solution to the assay plate and incubated at 37° C. and 5% CO2. At the end of 7-day incubation, cell assay plates were removed from incubation and equilibrated to room temperature (20 min). Then 100 μL of CellTiter-Glo (Promega, G9243) reagent, prepared per manufacturer's protocol, was added to each well, and the resulted plates were centrifuged 1,000 rpm for 1 minute, incubated at room temperature in the dark for 20 minutes, sealed with Perkin Elmer sticky film, and the luminescence signal read by Envision (Perkin Elmer).
Data analysis • a) % Inhibition was calculated using following equation: […]
X: compound concentration; Y: % Inhibition
as §1

| SMILES | IC50 (HCC1806 Ub-PCNA (USP1); Homo sapiens) [nM] | GI50 (MDA-MB-436 cells; Homo sapiens, 168 h) [nM] | IC50 (HCC1806 Ub-PCNA (USP1)) [nM] | GI50 (MDA-MB-436 cells) [nM] |
| --- | --- | --- | --- | --- |
| CCc1ncnc(C2CC2)c1-c1ncc2ccc(=O)n(Cc3ccc(-c4nc(C(F)(F)F)cn4C)cc3)c2n1 [Compound 52, 2-(4-Cyclopropyl-6-Ethylpyrimidin-5-Yl)-8-({4-[1-Methyl-4-(Trifluoromethyl)Imidazol-2-Yl]Phenyl}Methyl)Pyrido[2,3-d]Pyrimidin-7-One] | 100 to 1000 | 100 to 1000 | – | – |
| COc1ncnc(C2CC2)c1-c1ncc2ccc(=O)n(C(C)c3ccc(-c4nc(C(F)(F)F)cn4C)cc3)c2n1 (stereo not shown) [Compound 62] | – | – | 10 to 100 | 10 to 100 |
| COc1ncnc(C2CC2)c1-c1ncc2ccc(=O)n(C(C)c3ccc(-c4nc(C(F)(F)F)cn4C)cc3)c2n1 (stereo not shown) [Compound 63] | – | – | 10 to 100 | 10 to 100 |
| COc1ncnc(C2CC2)c1-c1ncc2ccc(=O)n(Cc3ccc(-c4nc(C(F)(F)F)ccc4OC(C)C)cc3)c2n1 [Compound 75, 2-(4-Cyclopropyl-6-Methoxypyrimidin-5-Yl)-8-({4-[3-Isopropoxy-6-(Trifluoromethyl)Pyridin-2-Yl]Phenyl}Methyl)Pyrido[2,3-d]Pyrimidin-7-One] | 10 to 100 | 10 to 100 | – | – |
| COc1ncnc(C2CC2)c1-c1ncc2cc(C)c(=O)n(Cc3ccc(-c4nc(C(F)(F)F)cn4C)cc3)c2n1 [Compound 78, 2-(4-cyclopropyl-6-methoxypyrimidin-5-yl)-6-methyl-8-({4-[1-methyl-4-(trifluoromethyl)imidazo]-2-yl]phenylmethyl)pyrido[2,3-d]pyrimidin-7-one] | – | – | 10 to 100 | 10 to 100 |
| COc1ncnc(C2CC2)c1-c1ncc2cc(Cl)c(=O)n(Cc3ccc(-c4nc(C(F)(F)F)cn4C)cc3)c2n1 [Compound 79, 6-Chloro-2-(4-Cyclopropyl-6-Methoxypyrimidin-5-Yl)-8-({4-[1-Methyl-4-(Trifluoromethyl)Imidazol-2-Yl]Phenyl}Methyl)Pyrido[2,3-d]Pyrimidin-7-One] | 10 to 100 | 10 to 100 | – | – |
| COc1ncnc(C2CC2)c1-c1ncc2ccc(=O)n(Cc3ccc(-c4nc(C(F)(F)F)cn4C)cn3)c2n1 [Compound 88, 2-(4-Cyclopropyl-6-Methoxypyrimidin-5-Yl)-8-({5-[1-Methyl-4-(Trifluoromethyl)Imidazol-2-Yl]Pyridin-2-Yl}Methyl)Pyrido[2,3-d]Pyrimidin-7-One] | 10 to 100 | > 1000 | – | – |
| COc1ncnc(C2CC2)c1-c1ncc2ccc(=O)n(C(C)c3ccc(-c4nc(C(F)(F)F)cn4C)cc3)c2n1 (stereo not shown) [Compound I-43, 2-(4-Cyclopropyl-6-Methoxypyrimidin-5-Yl)-8-(1-{4-[1-Methyl-4-(Trifluoromethyl)Imidazol-2-Yl]Phenyl}Ethyl)Pyrido[2,3-d]Pyrimidin-7-One] | 10 to 100 | 10 to 100 | – | – |
| Cc1cnn(C(C)C)c1-c1ncc2ccc(=O)n(Cc3ccc(-c4nc(C(F)(F)F)cn4C)cc3)c2n1 [Compound I-45, 2-(2-isopropyl-4-methylpyrazol-3-yl)-8-({4-[1-methyl-4-(trifluoromethyl)imidazol-2-yl]phenyl}methyl)pyrido[2,3-d]pyrimidin-7-one] | 10 to 100 | 10 to 100 | – | – |
| COc1ncnc(C2CC2)c1-c1ncc2cc(-c3nnc(C)n3C)c(=O)n(Cc3ccc(-c4nc(C(F)(F)F)cn4C4CC4)cc3)c2n1 [Compound I-149, 8-({4-[1-Cyclopropyl-4-(Trifluoromethyl)Imidazol-2-Yl]Phenyl}Methyl)-2-(4-Cyclopropyl-6-Methoxypyrimidin-5-Yl)-6-(4,5-Dimethyl-1,2,4-Triazol-3-Yl)Pyrido[2,3-d]Pyrimidin-7-One] | 10 to 100 | 10 to 100 | – | – |
| COc1ncnc(C2CC2)c1-c1ncc2cc(-c3nnc(C)o3)c(=O)n(Cc3ccc(-c4nc(C(F)(F)F)cn4C4CC4)cc3)c2n1 [Compound I-154] | 10 to 100 | 10 to 100 | – | – |
| COc1ncnc(C2CC2)c1-c1ncc2cc(-c3nccn3C)c(=O)n(Cc3ccc(-c4nc(C(F)(F)F)cn4C4CC4)cc3)c2n1 [Compound I-158] | 10 to 100 | 10 to 100 | – | – |

Now from value to compound:

| IC50 (HCC1806 Ub-PCNA (USP1); Homo sapiens) [nM] | GI50 (MDA-MB-436 cells; Homo sapiens, 168 h) [nM] | IC50 (HCC1806 Ub-PCNA (USP1)) [nM] | GI50 (MDA-MB-436 cells) [nM] | SMILES |
| --- | --- | --- | --- | --- |
| < 10 | < 10 | – | – | [2H]C([2H])([2H])Oc1ncnc(C2CC2)c1-c1ncc2ccc(=O)n(C([2H])([2H])c3ccc(-c4nc(C(F)(F)F)cn4C([2H])([2H])[2H])cc3)c2n1 [Compound 57, 2-[4-cyclopropyl-6-(2H3)methoxypyrimidin-5-yl]-8-({4-[1-(2H3)methyl-4-(trifluoromethyl)imidazol-2-yl]phenyl}(2H2)methyl)pyrido[2,3-d]pyrimidin-7-one] |
| – | 10 to 100 | – | – | COc1ncnc(C2CC2)c1-c1ncc2ccc(=O)n(Cc3ccc(-c4nc(C(F)(F)F)c[nH]4)cc3)c2n1 [Compound 58, 2-(4-Cyclopropyl-6-Methoxypyrimidin-5-Yl)-8-({4-[4-(Trifluoromethyl)-1H-Imidazol-2-Yl]Phenyl}Methyl)Pyrido[2,3-d]Pyrimidin-7-One] |
| 10 to 100 | 10 to 100 | – | – | COc1ncnc(C2CC2)c1-c1ncc2cc(-c3cnn(C)c3)c(=O)n(Cc3ccc(-c4nc(C(F)(F)F)cn4C)cc3)c2n1 [Compound 64] |
| 10 to 100 | 10 to 100 | – | – | COc1ncnc(C2CC2)c1-c1ncc2ccc(=O)n(Cc3ccc(-c4ncc(F)cc4OC(C)C)cc3)c2n1 [Compound 67, 2-(4-cyclopropyl-6-methoxypyrimidin-5-yl)-8-{[4-(5-fluoro-3-isopropoxypyridin-2-yl)phenyl]methyl}pyrido[2,3-d]pyrimidin-7-one] |
| 10 to 100 | 10 to 100 | – | – | COc1ncnc(C2CC2)c1-c1ncc2ccc(=O)n(Cc3ccc(-c4nc(C(F)(F)F)cn4C)cc3F)c2n1 [Compound 71, 2-(4-Cyclopropyl-6-Methoxypyrimidin-5-Yl)-8-({2-Fluoro-4-[1-Methyl-4-(Trifluoromethyl)Imidazol-2-Yl]Phenyl}Methyl)Pyrido[2,3-d]Pyrimidin-7-One] |
| 10 to 100 | < 10 | – | – | COc1ncnc(C2CC2)c1-c1ncc2ccc(=O)n(Cc3ccc(-c4nc(C(F)(F)F)cn4C)c(F)c3)c2n1 [Compound 72, 2-(4-Cyclopropyl-6-Methoxypyrimidin-5-Yl)-8-({3-Fluoro-4-[1-Methyl-4-(Trifluoromethyl)Imidazol-2-Yl]Phenyl}Methyl)Pyrido[2,3-d]Pyrimidin-7-One] |
| < 10 | < 10 | – | – | COc1ncnc(C2CC2)c1-c1ncc2ncc(=O)n(Cc3ccc(-c4nc(C(F)(F)F)cn4C(C)C)cc3)c2n1 [Compound I-29] |
